The text below walks through data of patent publication US10988524B2, “Modified relaxin B chain peptides and their therapeutic use” (priority 2018, dated 2021).

Data set [1] can be described thus: Stability in human plasma. In kind it is in vitro ADME. As to conditions: 37° C. The protocol: (§1) Prior to the testing of stability in plasma of a peptide batch, its purity (HPLC-UV) was determined.
(§2) Rat and Human plasma: anti-coagulant sodium or lithium heparin.
(§3) 100 μM solution of study compound in 50 mM Phosphate buffer pH 7.4.
(§4) 950 μL plasma is pre-incubated for 5 min at 37° C. 50 μL of compound stock solution is added. Final compound concentration=5 μM. Vortex and transfer 1504, plasma into an Eppendorf for each time point. The time points 0-1 and −4 h are carried out in duplicate for each species.
(§5) After incubation extract 1504, plasma with 6004, Acetonitrile containing with 1% TFA. Vortex and centrifuge 10 min at 14600 rpm. Dry 2004, supernatant under N2. Reconstitute sample in 200 μL of H2O/CH3CN 98/2+0.1% FA+50 ng/ml Labetalol and analyze using the analytical system used in solubility and stability studies.
(§6) For determination of the amount of the remaining peptide, the peak areas of the target compound at t0 and each time point […] were compared, resulting in “% remaining peptide”, following the equation
(§7) % remaining peptide=[(peak area peptide time)×100]/peak area peptide t0. The stability is expressed as “% remaining peptide”.

The nature of another data set: Stability in rat plasma. The data set is classed as in vitro ADME. The conditions noted are these: 37° C. The protocol: as §1, §2, §3, §4, §5, §6, §7
Data set [2] is described as follows: Solubility testing of peptides in buffer. In kind it is physicochemical. As to conditions: ~19 h.
The next data set concerns the target T1, RXFP1 (Homo sapiens, UniProt Q9HBX9).
T1 sequence (Q9HBX9 1-757): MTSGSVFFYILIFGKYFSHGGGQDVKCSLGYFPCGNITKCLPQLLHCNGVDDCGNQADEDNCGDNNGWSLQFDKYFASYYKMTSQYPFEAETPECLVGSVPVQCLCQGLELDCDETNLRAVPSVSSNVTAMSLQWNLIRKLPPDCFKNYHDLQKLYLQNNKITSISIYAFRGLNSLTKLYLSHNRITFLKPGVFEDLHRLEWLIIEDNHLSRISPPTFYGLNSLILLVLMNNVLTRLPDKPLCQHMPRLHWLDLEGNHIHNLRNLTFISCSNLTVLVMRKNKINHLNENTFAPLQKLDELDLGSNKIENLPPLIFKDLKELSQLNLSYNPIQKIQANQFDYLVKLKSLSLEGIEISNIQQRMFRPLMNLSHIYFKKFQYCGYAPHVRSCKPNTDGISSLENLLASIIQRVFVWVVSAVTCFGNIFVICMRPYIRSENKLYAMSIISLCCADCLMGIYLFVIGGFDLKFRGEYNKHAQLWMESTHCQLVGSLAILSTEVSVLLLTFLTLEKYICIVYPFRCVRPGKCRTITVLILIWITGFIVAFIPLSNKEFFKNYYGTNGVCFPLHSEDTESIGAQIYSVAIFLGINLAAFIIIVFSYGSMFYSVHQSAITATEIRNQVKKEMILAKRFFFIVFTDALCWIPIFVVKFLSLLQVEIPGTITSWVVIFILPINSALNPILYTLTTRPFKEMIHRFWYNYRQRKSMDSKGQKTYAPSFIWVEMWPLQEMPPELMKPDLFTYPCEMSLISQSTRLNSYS
In words: OVCAR5 cAMP assay (RXFP1 agonist activity, HTRF). The conditions noted are these: for Emax: OVCAR-5, read-out: cAMP assay in OVCAR 5 cells Emax, maximal intracellular cAMP relative to H2-relaxin in the same test occasion; for EC50: cAMP assay in OVCAR 5 cells EC50 (nM), OVCAR5 cells expressing endogenous RXFP1, cAMP by HTRF, 30 min at 37° C., 1 mM IBMX. (In general: cAMP levels reflect the balance of adenylyl cyclase and phosphodiesterase activity.)

The mark [3] stands for this setting: Phosphate buffer 50 mM pH 7.4, target solubility 2.0 mg/ml, read-out: Solubility phosphate buffer pH 7.4.

Where two headings read alike, the source gives them in different places. Non-standard residues stand in square brackets, D forms with d. Residues, ends and D or L forms follow the SMILES beside them. Phe(4-F) = N[C@@H](Cc1ccc(F)cc1)C(=O)O; Nle = CCCC[C@H](N)C(=O)O; Aib = CC(C)(N)C(=O)O Some results are limits rather than exact numbers.

A word on the amount remaining: it is the share of the starting amount still present when the sample was taken. Lower therefore signals more turnover. One may read the solubility as how much of the substance goes into solution per volume. Broadly, the Emax is the maximal effect, on the per cent scale that the assay sets. In the case of `CCCC[C@H](NC(=O)CNC(=O)[C@H](CCC(=O)O)NC(=O)C(C)(C)NC(=O)C(C)(C)NC(=O)[C@@H](NC(=O)[C@H](CCC(N)=O)NC(=O)[C@H](C)NC(=O)[C@H](CCCNC(=N)N)NC(=O)[C@@H](NC(=O)[C@H](CCCCN)NC(=O)[C@H](CCC(=O)O)NC(=O)[C@H](CCCNC(=N)N)NC(=O)CNC(=O)[C@H](CCC(=O)O)NC(=O)[C@H](CC(C)C)NC(C)=O)C(C)C)[C@@H](C)CC)C(=O)N[C@@H](CO)C(=O)N[C@H](C(=O)N[C@@H](Cc1c[nH]c2ccccc12)C(=O)N[C@@H](CO)C(=O)NC(C)(C)C(=O)N[C@@H](CCCNC(=N)N)C(=O)N[C@@H](CCCCN)C(=O)N[C@@H](CCCCN)C(N)=O)[C@@H](C)O` [compound 3] (Ac-LEGREKVRAQI[Aib][Aib]EG[Nle]STWS[Aib]RKK-NH2), in data set [1] (5 μM, T = 0), the “Human Plasma stability % remaining, T = 0” value was determined as 100%. Also, the amount remaining at 1 h, 5 μM was found to be 85% in data set [1] (human plasma (sodium or lithium heparin), 1 h) and 78% in the data set “Stability in rat plasma” (rat plasma (sodium or lithium heparin), 1 h). Moreover, the share remaining at 4 h, 5 μM worked out at 64% in data set [1] (human plasma (sodium or lithium heparin), 4 h) and 55% in the data set “Stability in rat plasma” (rat plasma (sodium or lithium heparin), 4 h). Besides, the “Rat plasma stability % remaining, T = 0” value in “Stability in rat plasma” (5 μM, T = 0) came out at 100%. Moreover, the solubility in data set [2] (Acetate buffer 50 mM pH 4.5, target solubility 3.0 mg/ml, read-out: Solubility Acetate buffer pH 4.5) is no less than 3300 µg/mL; in data set [2] (Phosphate buffer 50 mM pH 7.4, target solubility 3.0 mg/ml, read-out: Solubility phosphate buffer pH 7.4), no less than 2900 µg/mL. Besides, on RXFP1, the Emax came to 97%.
For the compound `CCCC[C@H](NC(=O)CNC(=O)[C@H](CCC(=O)O)NC(=O)C(C)(C)NC(=O)C(C)(C)NC(=O)[C@@H](NC(=O)[C@H](CCC(N)=O)NC(=O)[C@H](C)NC(=O)[C@H](CCCNC(=N)N)NC(=O)[C@@H](NC(=O)[C@H](CCCCN)NC(=O)[C@H](CCC(=O)O)NC(=O)[C@H](CCCNC(=N)N)NC(=O)CNC(=O)[C@H](CCC(=O)O)NC(=O)[C@H](CC(C)C)NC(C)=O)C(C)C)[C@@H](C)CC)C(=O)N[C@@H](CO)C(=O)N[C@H](C(=O)N[C@@H](Cc1ccccc1)C(=O)N[C@@H](CO)C(=O)NC(C)(C)C(=O)N[C@@H](CCCNC(=N)N)C(=O)N[C@@H](CCCCN)C(=O)N[C@@H](CCCCN)C(N)=O)[C@@H](C)O` [compound 51] (Ac-LEGREKVRAQI[Aib][Aib]EG[Nle]STFS[Aib]RKK-NH2), the solubility in data set [2] (setting [3]) is no less than 2400 µg/mL. Besides, the Emax at RXFP1 turned out to be 98%.
Broadly, the EC50 is the midpoint of the concentration-response curve. A high value points to weaker potency. For `CCCC[C@H](NC(=O)CNC(=O)[C@H](CCC(=O)O)NC(=O)C(C)(C)NC(=O)C(C)(C)NC(=O)[C@@H](NC(=O)[C@H](CCC(N)=O)NC(=O)[C@H](C)NC(=O)[C@H](CCCNC(=N)N)NC(=O)[C@@H](NC(=O)[C@H](CCCCN)NC(=O)[C@H](CCC(=O)O)NC(=O)[C@H](CCCNC(=N)N)NC(=O)CNC(=O)[C@H](CCC(=O)O)NC(=O)[C@H](CC(C)C)NC(C)=O)C(C)C)[C@@H](C)CC)C(=O)N[C@@H](CO)C(=O)N[C@@H](CCC(N)=O)C(=O)N[C@@H](Cc1c[nH]c2ccccc12)C(=O)N[C@@H](CO)C(=O)NC(C)(C)C(=O)N[C@@H](CCCNC(=N)N)C(=O)N[C@@H](CCCNC(=N)N)C(=O)N[C@@H](CCCNC(=N)N)C(N)=O` [compound 52] (Ac-LEGREKVRAQI[Aib][Aib]EG[Nle]SQWS[Aib]RRR-NH2), the solubility in data set [2] (setting [3]) is no less than 2300 µg/mL. Also, on RXFP1, the Emax is 94% and the EC50 was no more than 10 nM.
Turning to `CCCC[C@H](NC(=O)CNC(=O)[C@H](CCC(=O)O)NC(=O)C(C)(C)NC(=O)C(C)(C)NC(=O)[C@@H](NC(=O)[C@H](CCC(N)=O)NC(=O)[C@H](C)NC(=O)[C@H](CCCNC(=N)N)NC(=O)[C@@H](NC(=O)[C@H](CCCCN)NC(=O)[C@H](CCC(=O)O)NC(=O)[C@H](CCCNC(=N)N)NC(=O)CNC(=O)[C@H](CCC(=O)O)NC(=O)[C@H](CC(C)C)NC(C)=O)C(C)C)[C@@H](C)CC)C(=O)N[C@@H](CO)C(=O)N[C@H](C(=O)N[C@@H](Cc1ccc(O)cc1)C(=O)N[C@@H](CO)C(=O)NC(C)(C)C(=O)N[C@@H](CCCNC(=N)N)C(=O)N[C@@H](CCCCN)C(=O)N[C@@H](CCCCN)C(N)=O)[C@@H](C)O` [compound 53] (Ac-LEGREKVRAQI[Aib][Aib]EG[Nle]STYS[Aib]RKK-NH2), the solubility in data set [2] (setting [3]) was no less than 2100 µg/mL. Also, the Emax at RXFP1 was 75%.
In the case of `CC[C@H](C)[C@H](NC(=O)[C@H](CCC(N)=O)NC(=O)[C@H](C)NC(=O)[C@H](CCCNC(=N)N)NC(=O)[C@@H](NC(=O)[C@H](CCCCN)NC(=O)[C@H](CCC(=O)O)NC(=O)[C@H](CCCNC(=N)N)NC(=O)CNC(=O)[C@H](CCC(=O)O)NC(=O)[C@H](CC(C)C)NC(C)=O)C(C)C)C(=O)NC(C)(C)C(=O)NC(C)(C)C(=O)N[C@@H](CCC(=O)O)C(=O)NCC(=O)N[C@@H](CCC(N)=O)C(=O)N[C@@H](CO)C(=O)N[C@H](C(=O)N[C@@H](Cc1c[nH]c2ccccc12)C(=O)N[C@@H](CO)C(=O)NC(C)(C)C(=O)N[C@@H](CCCNC(=N)N)C(=O)N[C@@H](CCCCN)C(=O)N[C@@H](CCCCN)C(N)=O)[C@@H](C)O` [compound 54] (Ac-LEGREKVRAQI[Aib][Aib]EGQSTWS[Aib]RKK-NH2), the solubility in data set [2] (setting [3]) was no less than 2400 µg/mL. The “cAMP assay in OVCAR 5 cells Emax” value at RXFP1 (maximal intracellular cAMP relative to H2-relaxin in the same test occasion) was determined as 96%.
Take `CCCC[C@H](NC(=O)CNC(=O)[C@H](CCC(=O)O)NC(=O)C(C)(C)NC(=O)C(C)(C)NC(=O)[C@@H](NC(=O)[C@H](CCC(N)=O)NC(=O)[C@H](C)NC(=O)[C@H](CCCNC(=N)N)NC(=O)[C@@H](NC(=O)[C@H](CCCCN)NC(=O)[C@H](CCC(=O)O)NC(=O)[C@H](CCCNC(=N)N)NC(=O)CNC(=O)[C@H](CCC(=O)O)NC(=O)[C@H](CC(C)C)NC(C)=O)C(C)C)[C@@H](C)CC)C(=O)N[C@@H](CO)C(=O)N[C@@H](CCCNC(=N)N)C(=O)N[C@@H](Cc1c[nH]c2ccccc12)C(=O)N[C@@H](CO)C(=O)NC(C)(C)C(=O)N[C@@H](CCCNC(=N)N)C(=O)N[C@@H](CCCNC(=N)N)C(=O)N[C@@H](CCCNC(=N)N)C(N)=O` [compound 55] (Ac-LEGREKVRAQI[Aib][Aib]EG[Nle]SRWS[Aib]RRR-NH2): the solubility in data set [2] (setting [3]) is no less than 2500 µg/mL. Also, at RXFP1, the Emax amounted to 88% and the EC50 is no more than 5 nM.
Regarding `CC[C@H](C)[C@H](NC(=O)[C@H](CCC(N)=O)NC(=O)[C@H](C)NC(=O)[C@H](CCCNC(=N)N)NC(=O)[C@@H](NC(=O)[C@H](CCCCN)NC(=O)[C@H](CCC(=O)O)NC(=O)[C@H](CCCNC(=N)N)NC(=O)CNC(=O)[C@H](CCC(=O)O)NC(=O)[C@H](CC(C)C)NC(C)=O)C(C)C)C(=O)NC(C)(C)C(=O)NC(C)(C)C(=O)N[C@@H](CCC(=O)O)C(=O)NCC(=O)N[C@@H](CCC(N)=O)C(=O)N[C@@H](CO)C(=O)N[C@H](C(=O)N[C@@H](Cc1ccc(O)cc1)C(=O)N[C@@H](CO)C(=O)NC(C)(C)C(=O)N[C@@H](CCCNC(=N)N)C(=O)N[C@@H](CCCCN)C(=O)N[C@@H](CCCCN)C(N)=O)[C@@H](C)O` [compound 58] (Ac-LEGREKVRAQI[Aib][Aib]EGQSTYS[Aib]RKK-NH2), in data set [2] (setting [3]), the solubility is no less than 2000 µg/mL. The Emax on RXFP1 was 93%.
The corresponding values for `CC[C@H](C)[C@H](NC(=O)[C@H](CCC(N)=O)NC(=O)[C@H](C)NC(=O)[C@H](CCCNC(=N)N)NC(=O)[C@@H](NC(=O)[C@H](CCCCN)NC(=O)[C@H](CCC(=O)O)NC(=O)[C@H](CCCNC(=N)N)NC(=O)CNC(=O)[C@H](CCC(=O)O)NC(=O)[C@H](CC(C)C)NC(C)=O)C(C)C)C(=O)NC(C)(C)C(=O)NC(C)(C)C(=O)N[C@@H](CCC(=O)O)C(=O)NCC(=O)N[C@@H](CCC(N)=O)C(=O)N[C@@H](CO)C(=O)N[C@H](C(=O)N[C@@H](Cc1ccc(F)cc1)C(=O)N[C@@H](CO)C(=O)NC(C)(C)C(=O)N[C@@H](CCCNC(=N)N)C(=O)N[C@@H](CCCCN)C(=O)N[C@@H](CCCCN)C(N)=O)[C@@H](C)O` [compound 59] (Ac-LEGREKVRAQI[Aib][Aib]EGQST[Phe(4-F)]S[Aib]RKK-NH2) are no less than 2400 µg/mL and 86%.
